This is an account of results in paper PMC6346587, “Glucose 6-phosphate dehydrogenase 6-phosphogluconolactonase: characterization of the Plasmodium vivax enzyme and inhibitor studies” (Malaria Journal, 2019).

Series [1] addresses PvG6PD (Plasmodium vivax, UniProt A5K3M1). Description: PvG6PD enzyme inhibition assay (NADPH formation, absorbance 340 nm / fluorescence). As to conditions: for Type of inhibition of PvG6PD: with respect to both G6P and NADP+. Format: biochemical. The protocol:
The G6PD activity of PfGluPho variants was measured spectrophotometrically as described for the wt enzyme. Kinetic characterization of PvG6PD was performed using the same assay system at an Evolution 300 spectrophotometer (Thermo Scientific, Dreieich, Germany). In brief, the initial reduction of NADP^+ to NADPH by PvG6PD was monitored by measuring the absorbance at 340 nm. The 500 µL reaction mixture contained 200 µM NADP^+ and varying concentrations of PvG6PD in an assay buffer of 100 mM Tris–HCl, pH 8.0, 10 mM MgCl2, and 0.5 mM EDTA at 25 °C. The reaction was started by adding 800 µM G6P. The KM for NADP^+ was determined by titrating NADP^+ from 2 to 400 µM at 800 µM G6P; the KM for G6P was measured accordingly by titrating G6P from 2 to 1200 µM at 200 µM NADP^+. KM values were calculated using GraphPad Prism. Since the KM for G6P was considerably higher than the value measured for PfGluPho [14], a concentration of 800 µM G6P was defined as substrate saturation for PvG6PD.
To identify potential inhibitors of PvG6PD, compounds with already known effects on PfGluPho (ellagic acid and derivatives, ML304) were tested. Additionally, several compound libraries of the Helmholtz Center for Infection Research, Brunswick, were screened against PfGluPho using the high-throughput-compatible assay systems described in Preuss et al.. […] Based on structure-activity relationship studies, a set of new potential G6PD inhibitors (Fig. 8) was then synthesized and assessed. First, the IC50 values of the compounds were determined, followed by mechanistic characterization of the mode of action. To test for selectivity of the compounds, the IC50 values of the compounds on PvG6PD, PfGluPho, and hG6PD were determined in parallel.
All measurements were performed in 96-well plates, half area (Greiner Bio-One, Frickenhausen, Germany) using a Tecan Infinite M200 plate reader (Maennedorf, Switzerland). The compounds were dissolved in 100% DMSO and afterwards diluted in assay buffer to the required concentrations. Different compound concentrations were added to a mixture of enzyme and NADP^+ in assay buffer. Concentrations of substrates differed depending on the enzyme; an overview is given in the Additional file 4. The reaction was started by adding G6P, and the increase of NADPH was monitored by measuring the absorbance at 340 nm. To increase the sensitivity of the assay, some measurements were reproduced, detecting the fluorescence of NADPH at ex340/em460. […] A negative control containing no compound was defined as 0% inhibition; a positive control lacking the substrate G6P was defined as 100% inhibition. For evaluations using GraphPad Prism and Microsoft Excel, only a linear increase in absorbance/fluorescence was considered. For the mechanistic characterization of the compounds, either NADP^+ or G6P were titrated at different compound concentrations around the IC50, while keeping the second substrate in saturation. The initial slope was plotted as Michaelis–Menten curves and Lineweaver–Burk plots using GraphPad Prism; KM values and Vmax were calculated with GraphPad Prism software.

Series [2] deals with T1, PfGluPho (Plasmodium falciparum, UniProt Q8IKU0).
T1 construct: made in house
T1 sequence (Q8IKU0 1-910): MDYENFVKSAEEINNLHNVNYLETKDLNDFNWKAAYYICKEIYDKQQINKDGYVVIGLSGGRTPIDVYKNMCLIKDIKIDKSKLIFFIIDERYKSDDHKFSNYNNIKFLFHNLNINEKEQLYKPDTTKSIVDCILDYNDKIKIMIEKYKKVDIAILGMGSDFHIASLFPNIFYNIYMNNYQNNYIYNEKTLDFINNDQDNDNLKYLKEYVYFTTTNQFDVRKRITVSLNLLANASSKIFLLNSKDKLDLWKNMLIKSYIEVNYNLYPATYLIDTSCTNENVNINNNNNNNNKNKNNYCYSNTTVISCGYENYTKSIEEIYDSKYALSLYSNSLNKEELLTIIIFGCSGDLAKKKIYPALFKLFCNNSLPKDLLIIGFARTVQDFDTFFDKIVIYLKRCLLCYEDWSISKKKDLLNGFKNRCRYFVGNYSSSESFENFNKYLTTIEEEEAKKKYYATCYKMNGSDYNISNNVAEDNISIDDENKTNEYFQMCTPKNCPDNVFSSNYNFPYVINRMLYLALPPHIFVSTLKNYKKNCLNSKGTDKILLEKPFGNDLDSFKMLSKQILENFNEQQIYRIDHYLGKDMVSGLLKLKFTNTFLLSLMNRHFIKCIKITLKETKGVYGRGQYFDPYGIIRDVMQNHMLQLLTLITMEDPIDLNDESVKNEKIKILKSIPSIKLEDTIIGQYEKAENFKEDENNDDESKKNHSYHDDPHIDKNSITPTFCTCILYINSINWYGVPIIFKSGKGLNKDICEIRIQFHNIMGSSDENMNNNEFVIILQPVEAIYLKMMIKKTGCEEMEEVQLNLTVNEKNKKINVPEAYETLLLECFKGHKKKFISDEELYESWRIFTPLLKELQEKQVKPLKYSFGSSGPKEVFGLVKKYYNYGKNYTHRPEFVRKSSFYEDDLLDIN
To be noted: cited from earlier work.

Series [3] deals with T2, hG6PD (Homo sapiens, UniProt P11413).
T2 construct: made in house
As to conditions: ellagic acid; read-out: IC50 for hG6PD; cited from earlier work.

For series [4], the system named is P. falciparum strains. To be noted: cited from earlier work.
Series [5] has as its system Plasmodium yoelii strain overproducing GSH. Set-up: method as in PMID 23029306. To be noted: cited from earlier work.
The conditions of series [6]: cited from earlier work.
The target of series [7] is PfPrx1a (Plasmodium falciparum). The series is described as follows: non-reducing SDS-PAGE with western blot; recombinant PfPrx1a (positive control) after incubation with GSSG, SDS-PAGE without DTT, anti-glutathione western blot and Ponceau staining. A general note: A western blot detects proteins with antibodies after separation by electrophoresis.
In series [8] the test system is P. falciparum 3D7[hGrx1-roGFP2] cytosolic glutathione-dependent redox potential. The series is described as follows: Cytosolic glutathione redox sensor hGrx1-roGFP2, confocal live cell imaging (CLSM). It is filed as cell-based, Plasmodium falciparum. To be noted: 24 h incubation, approximately 4 × EC50. The protocol:
A Leica confocal system TCS SP5 inverted microscope equipped with the objective HCX PL APO 63.0 × 1.30 GLYC 37 °C UV connected to a 37 °C temperature chamber was used. The argon laser power was set to 20%; scanning was performed at 400 Hz frequency and at a 512 × 512 pixel resolution. The smart gain and smart offset were 950 V and −0.9%, respectively. With a sequential scan, the hGrx1–roGFP2 probe was excited at 405 nm and at 488 nm and emission was detected at 500–550 nm. Laser intensity was adjusted to match the full dynamic range of the probe to the dynamic range of the detector (405 nm: 10%, 488 nm: 4%). […] The Leica LAS AF Lite software for fluorescence analysis was used. The 405/488 nm ratio was calculated. The graphs were plotted using the GraphPad Prism 5 software (San Diego, CA, USA). For live cell imaging, only parasites showing fluorescent signals at both 405 and 488 nm excitation and an intact host cell were chosen.
The effect of ML304 and the anti-malarial drugs ATS and CQ as reference drugs on P. falciparum were investigated in 4 h and 24 h incubation experiments. […] For 4 h experiments, trophozoite stage parasites (26–30 h) of 3D7^[hGrx1–roGFP2] and NF54^[hGrx1–roGFP2] (6–8% parasitaemia) were magnetically enriched (Miltenyi Biotec, Germany), counted by using a Neubauer hemocytometer (Brand GmbH, Germany), and returned to cell culture (at 2.0 × 10^4 trophozoites μL^−1) for at least 1 h to recover. 1.0 × 10^6 cells in 100 μL cell culture medium were placed into LoBind tubes (Eppendorf, Hamburg, Germany) for 4 h incubation experiments. The parasites were treated with ML304 at 1 μM, 50 μM, and 100 μM, or with the anti-malarial drugs ATS and CQ at approximately 50 × EC50 for 4 h under cell culture conditions. Subsequently, free thiol groups were blocked with 2 mM N-ethylmaleimide (NEM) for 15 min at 37 °C. For 24 h experiments, a 5 mL culture (5% haematocrit, 6–8% parasitaemia) of ring stage parasites (6–10 h post invasion) was treated with ML304 at 1 μM, 5 μM, and 10 μΜ, or the anti-malarial drugs ATS and CQ at approximately 4 × EC50. Prior to enrichment, cysteines were blocked with 2 mM NEM for 15 min at 37 °C. For 4 h and 24 h experiments, cells were washed after incubation and resuspended in Ringer’s solution (122.5 mM NaCl, 5.4 mM KCl, 1.2 mM CaCl2, 0.8 mM MgCl2, 11 mM D-glucose, 25 mM HEPES, 1 mM NaH2PO4, pH 7.4). 50 μL of cells (1.0 × 10^6 cells 50^−1 μL^−1) were seeded onto poly-L-lysine-coated μ-Slides 18 well (flat) (Ibidi, Martinsried, Germany) and measured using CLSM (confocal laser scanning microscopy) with excitation wavelengths at 405 nm and 488 nm. […] Each experiment was carried out three times. Between 10 and 20 microscopy images were taken each time, resulting in at least 30 experimental values per concentration and incubation time. The obtained ratio values were normalized to the control value, which was set to 100. All experiments were carried out within 6 weeks after the appearance of transfectants. Mean and standard error of the mean (SEM) are shown. A one-way ANOVA test with 95% confidence intervals with the Dunnett’s multiple comparison test (GraphPad Prism 5.0) was applied for statistical analysis of significance (*p < 0.05; **p < 0.01; ***p < 0.001).

The target in series [9] is T3, recombinant hGrx1-roGFP2 (Homo sapiens, UniProt P35754).
T3 construct: made in house
Description: In vitro interaction with recombinant hGrx1-roGFP2 probe. Format: biochemical. As to conditions: at the concentrations used in this study. The protocol:
The sensor hGrx1–roGFP2 (human glutaredoxin 1-reduction–oxidation sensitive green fluorescent protein 2) was recently transiently expressed in 3D7 P. falciparum parasites by using the pARL1a(+) expression vector. Heterologous overexpression of hGrx1–roGFP2 for the evaluation of the in vitro interactions of ML304 and anti-malarial drugs with the recombinant redox probe was performed according to [35].
ML304 was used at concentrations of 10 nM to 1 mM in degassed standard reaction buffer (100 mM potassium phosphate, 1 mM EDTA, pH 7.0). […] The characterization of the in vitro interaction of hGrx1–roGFP2 with ML304 was performed according to Schuh et al..

Series [10] deals with P. falciparum 3D7. To be noted: determined previously; cited from earlier work.
Series [11] deals with the molecule itself. Description: SEC; gel filtration chromatography of purified PvG6PD under reducing conditions; single peak of approximately 389 kDa. (SEC sorts molecules by how far they enter the pores of the column.)

T2 sequence (P11413 whole entry): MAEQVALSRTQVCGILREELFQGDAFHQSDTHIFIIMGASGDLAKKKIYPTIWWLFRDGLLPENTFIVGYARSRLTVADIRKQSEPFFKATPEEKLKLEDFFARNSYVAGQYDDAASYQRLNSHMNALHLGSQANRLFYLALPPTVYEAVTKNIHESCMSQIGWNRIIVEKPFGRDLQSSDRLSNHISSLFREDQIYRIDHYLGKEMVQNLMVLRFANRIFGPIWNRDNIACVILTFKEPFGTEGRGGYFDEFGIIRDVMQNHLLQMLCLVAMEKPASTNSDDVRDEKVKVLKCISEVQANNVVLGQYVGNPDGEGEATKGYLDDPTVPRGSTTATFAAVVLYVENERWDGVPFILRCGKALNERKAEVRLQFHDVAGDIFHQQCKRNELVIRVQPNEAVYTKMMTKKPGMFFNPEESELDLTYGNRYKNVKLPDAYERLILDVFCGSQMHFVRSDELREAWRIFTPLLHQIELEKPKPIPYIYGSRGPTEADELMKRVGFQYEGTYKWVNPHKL

Turning to `O=c1oc2c(O)c(O)cc3c(=O)oc4c(O)c(O)cc1c4c23` [ellagic acid], the concentration for half-maximal inhibition (IC50) (in general, the concentration at which inhibition is half-maximal) was 32.5 ± 13.4 nM in [1]; 77 ± 22 nM in series [2] (ellagic acid, read-out: IC50 on PfGluPho); 102 ± 39 nM in series [3]. Besides, the “Type of inhibition of PvG6PD” value is “mixed type inhibitor” in [1] and “mixed type inhibition” in series [1] (listed as EA). Also, the “Type of inhibition of PfGluPho” value in series [2] (with respect to both G6P and NADP+) is recorded as “mixed type inhibition”. The “Interaction with chloroquine, atovaquone, mefloquine, and artesunate” value in [4] is on record as “synergistic effects”. In series [5], the “Sensitivity of GSH-overproducing P. yoelii strain versus wt” value is “five times less sensitive”. The Haemolytic effects entry in series [6] (mice) is listed as “no observable haemolytic effects”. Moreover, the “Overall toxicity in mice” value in series [6] (mouse, in vivo) was “low”.

For PfPrx1a (enzyme), in [7], the stoichiometry N – broadly, a count of units in the complex or per binding partner – turned out to be 2.

`CCN(CC)CCCC(C)Nc1ccnc2cc(Cl)ccc12` (stereo not drawn) [CQ, chloroquine]: the “Increase of redox ratio (405/488 nm)” value in series [8] turned out to be 1.5 fold. In addition, the “Direct interaction with recombinantly purified hGrx1-roGFP2 probe” value in series [9] was “excluded a direct interaction”. The EC50 – broadly, the concentration needed to bring the measured effect to its halfway point – in [10] is 8.6 nM.

Consider `C[C@@H]1CC[C@H]2[C@@H](C)C(=O)O[C@@H]3O[C@@]4(C)CC[C@@H]1[C@]32OO4` [ATS, artemisinin], for which the “Increase of redox ratio (405/488 nm)” value in series [8] is “hardly affected”. Also, the “Direct interaction with recombinantly purified hGrx1-roGFP2 probe” value in series [9] is recorded as “excluded a direct interaction”. Further, in series [10], the EC50 was 4.4 nM.

B1: Plasmodium vivax glucose 6-phosphate dehydrogenase (PvG6PD), C-terminal part (aa 310-927) of PvGluPho (domain or fragment, UniProt A5K3M1 310-927, looked up)
chain: LNRRECLTIIVFGCSGDLAKKKIYPAIFKLFCNKRLPKDLLIVGFARTAQSFDSFFDKIVGYLKRCLHSYEDLSLTQKKDLLNCFKNKCRYYIGDYSSSESFERFNKYLTQLERENLIGTAPTSWAAAAGNASFANDTDKVEHHPDEAILAKGTGAATPGEAPGGANGPATHGEAHGGANGLSTPMQGKAVPTDDTSDEGHSGANHPFAINRILYLALPPHIFVSTLKNYKKNCQNGNGTDKILLEKPFGKDLQTFKVLSKQILENFNEEHIYRIDHYLGKDMVSGLLKLKFTNTFLLSLMNRHFIKCIKITLKETKGVYGRGQYFDPYGIIRDVMQNHMLQLLALITMEDPIDLNDESVKNEKIKILKCIQSIKLDNTIIGQYVKSENYQEEKNLSAPPSDDHPVDESKRNHSYHDDPHIDSNSITPTFCTCILYINSINWYGVPIIFKAGKGLNKDICEIRLQFHNIMGSSDESMYNNEFVIILQPVEVIYLKMMIKKTGCEEMEEVQLNLTVNHKNKKNYVPEAYETLLLECFRGFKKKFISDEELYESWRIFTPLLNELQEKKVQPLKYPFGSSGPKEVYDLVKKYYNYGKNYANTPAFVRKSSFYEDDLLDIN
notes: glucose 6-phosphate dehydrogenase 6-phosphogluconolactonase (PvGluPho) of Plasmodium vivax, PlasmoDB PVX_117790; G6PD part, aa 310-927 (bp 930-2784); Calculated mass of the His-tagged protein 71.9 kDa; also called P. vivax G6PD; source: E. coli M15 with pRAREII (pQE30 vector), purified (Ni-NTA, size exclusion chromatography); not shown: His6, N-terminal, kept
Take B1: the “stoichiometry N” value in series [11] amounted to 6.
